# Measured values reported in patent publication US9376436B2, “2-(pyridin-2yl)-1, 7-diaza-spiro [4.4] nonane-6-one compound as voltage-gated sodium channels modulators” (CONVERGENCE PHARMACEUTICALS LIMITED, priority 2011, dated 2016).
# Structures can show the parent of a compound that is named as a salt. Where two headings read alike, the source gives them in different places.
# Biological target: T1, hNaV1.7 (Homo sapiens, UniProt Q15858)
# T1 construct: expressed in transfected cells; host or cells: HEK293
# T1 sequence (Q15858 whole entry): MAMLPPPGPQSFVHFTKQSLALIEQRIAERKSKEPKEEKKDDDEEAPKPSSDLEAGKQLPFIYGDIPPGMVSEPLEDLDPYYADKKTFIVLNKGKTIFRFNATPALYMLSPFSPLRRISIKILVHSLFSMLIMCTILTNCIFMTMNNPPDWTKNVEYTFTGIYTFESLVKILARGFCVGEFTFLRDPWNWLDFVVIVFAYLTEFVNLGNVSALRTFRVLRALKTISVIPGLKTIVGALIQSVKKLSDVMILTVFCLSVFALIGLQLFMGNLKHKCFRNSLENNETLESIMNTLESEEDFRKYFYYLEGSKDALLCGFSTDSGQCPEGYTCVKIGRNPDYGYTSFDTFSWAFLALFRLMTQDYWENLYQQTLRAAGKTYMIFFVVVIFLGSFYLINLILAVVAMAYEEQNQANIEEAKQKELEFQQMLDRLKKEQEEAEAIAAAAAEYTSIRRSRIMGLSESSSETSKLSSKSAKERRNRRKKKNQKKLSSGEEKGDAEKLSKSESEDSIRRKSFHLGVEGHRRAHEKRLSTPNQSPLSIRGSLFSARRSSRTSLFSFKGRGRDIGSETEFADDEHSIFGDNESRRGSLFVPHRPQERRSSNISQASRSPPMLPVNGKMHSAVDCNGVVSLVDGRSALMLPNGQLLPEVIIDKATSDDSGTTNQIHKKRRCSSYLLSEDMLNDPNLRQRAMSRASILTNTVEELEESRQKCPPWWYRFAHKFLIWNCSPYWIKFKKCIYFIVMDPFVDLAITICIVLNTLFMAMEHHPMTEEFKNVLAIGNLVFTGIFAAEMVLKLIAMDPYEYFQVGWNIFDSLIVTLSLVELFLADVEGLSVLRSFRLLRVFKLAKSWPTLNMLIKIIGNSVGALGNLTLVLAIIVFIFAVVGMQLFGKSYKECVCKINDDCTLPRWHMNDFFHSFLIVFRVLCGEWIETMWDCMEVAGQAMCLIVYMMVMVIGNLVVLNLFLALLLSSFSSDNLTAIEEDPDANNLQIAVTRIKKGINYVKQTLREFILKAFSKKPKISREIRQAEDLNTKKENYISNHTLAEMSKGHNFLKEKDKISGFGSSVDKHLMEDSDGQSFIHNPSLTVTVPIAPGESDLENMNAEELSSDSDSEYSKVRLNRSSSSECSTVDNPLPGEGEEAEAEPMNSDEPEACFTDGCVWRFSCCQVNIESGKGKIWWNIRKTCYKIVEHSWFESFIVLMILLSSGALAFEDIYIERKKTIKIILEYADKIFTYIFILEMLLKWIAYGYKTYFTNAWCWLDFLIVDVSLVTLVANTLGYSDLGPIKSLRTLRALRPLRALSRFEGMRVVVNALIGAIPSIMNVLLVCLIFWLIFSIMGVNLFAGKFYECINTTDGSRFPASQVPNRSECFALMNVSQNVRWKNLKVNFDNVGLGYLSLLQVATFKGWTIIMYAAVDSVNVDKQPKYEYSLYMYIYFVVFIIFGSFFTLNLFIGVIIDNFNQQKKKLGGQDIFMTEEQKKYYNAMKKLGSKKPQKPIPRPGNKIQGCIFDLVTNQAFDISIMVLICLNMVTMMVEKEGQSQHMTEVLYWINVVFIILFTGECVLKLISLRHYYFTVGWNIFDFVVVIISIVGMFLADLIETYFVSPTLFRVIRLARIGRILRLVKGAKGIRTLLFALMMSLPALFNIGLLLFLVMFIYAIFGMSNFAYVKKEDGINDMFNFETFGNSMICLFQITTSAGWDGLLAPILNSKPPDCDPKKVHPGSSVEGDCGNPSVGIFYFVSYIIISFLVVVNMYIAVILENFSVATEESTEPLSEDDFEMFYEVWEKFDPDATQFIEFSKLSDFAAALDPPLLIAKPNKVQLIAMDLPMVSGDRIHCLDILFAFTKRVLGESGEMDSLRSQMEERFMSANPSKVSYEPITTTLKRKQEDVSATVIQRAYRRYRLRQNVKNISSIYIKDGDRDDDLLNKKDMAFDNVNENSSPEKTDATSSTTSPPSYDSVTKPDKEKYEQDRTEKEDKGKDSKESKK
# Test: QPatch NaV1.7 assay (whole-cell patch clamp, QPatch16x)
# Type: cell-based
# Conditions: HEK293-hNaV1.7 cells
# In short: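 HEK293 cells expressing hNaV1.7 recorded by automated whole-cell patch clamp (CsF internal, pH 7.3). Peak currents from 20 ms steps to 0 mV measured at holding potentials of −90 mV and V1/2 SSI; four-point cumulative concentrations, 120 s each, Hill fits gave pIC50 at each potential.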
# [1] = holding voltage V1/2 SSI (half of channels inactivated), read-out: QP Nav1.7 SSI vhalf pIC50 (converted)
# [2] = holding voltage −90 mV (most channels closed), read-out: QP Nav1.7 −90 mV pIC50 (converted)
Compound,IC50 [1],IC50 [2]
"CCOc1ccc(F)c(-c2ccnc([C@H]3CC[C@]4(CC[C@H](C)NC4=O)N3)c2)c1 [Example 243, hydrochloride]",1.26 µM,15.8 µM
"CCOc1ccc(F)c(-c2ccnc([C@@H]3CC[C@]4(CC[C@H](C)NC4=O)N3)c2)c1 [Example 244, hydrochloride]",3.16 µM,39.8 µM
"CCOc1ccc(F)c(-c2cc(OC)nc([C@@H]3CC[C@@]4(CCN(C)C4=O)N3)c2)c1 [Example 249, (2S,5S)-2-[4-(5-Ethoxy-2-fluoro-phenyl)-6-methoxy-2-pyridyl]-7-methyl-1,7-diazaspiro[4.4]nonan-6-one hydrochloride]",1.26 µM,15.8 µM
"CN1CC[C@@]2(CC[C@H](c3cc(-c4cc(OCCF)ccc4F)ccn3)N2)C1=O [Example 251, (2R,5S)-2-[4-[2-Fluoro-5-(2-fluoroethoxyl)phenyl]-2-pyridyl]-7-methyl-1,7-diazaspiro[4.4]nonan-6-one hydrochloride]",39.8 µM,398 µM
"CC(C)COc1ccc(F)c(-c2ccnc([C@H]3CC[C@@]4(CCN(C)C4=O)N3)c2)c1 [Example 253, (2R,5S)-2-[4-(2-Fluoro-5-isobutoxy-phenyl)-2-pyridyl]-7-methyl-1,7-diazaspiro[4.4]nonan-6-one hydrochloride]",0.0794 µM,3.16 µM
"Cl.[2H]C([2H])(C)Oc1ccc(F)c(-c2ccnc([C@H]3CC[C@@]4(CCN(C)C4=O)N3)c2)c1 [Example 254, (2R,5S)-2-[4-[5-(1,1-Dideuterioethoxy)-2-fluoro-phenyl]-2-pyridyl]-7-methyl-1,7-diazaspiro[4.4]nonan-6-one hydrochloride]",6.31 µM,50.1 µM
"CC(Oc1ccc(F)c(-c2ccnc([C@H]3CC[C@@]4(CCN(C)C4=O)N3)c2)c1)C1CC1 (stereo partly drawn) [Example 255, (2R,5S)-2-[4-[5-(1-(Cyclopropyl)ethoxy)-2-fluoro-phenyl]-2-pyridyl]-7-methyl-1,7-diazaspiro[4.4]nonan-6-one hydrochloride]",10 µM,100 µM
"CCC(=O)c1ccc(F)c(-c2ccnc([C@H]3CC[C@@]4(CCN(C)C4=O)N3)c2)c1 [Example 257, (2R,5S)-2-[4-(2-Fluoro-5-propanoyl-phenyl)-2-pyridyl]-7-methyl-1,7-diazaspiro[4.4]nonan-6-one hydrochloride]",63.1 µM,2510 µM
"CCn1cc2cc(F)c(-c3ccnc([C@H]4CC[C@@]5(CCN(C)C5=O)N4)c3)cc2n1 [Example 259, (2R,5S)-2-[4-(2-Ethyl-5-fluoro-indazol-6-yl)-2-pyridyl]-7-methyl-1,7-diazaspiro[4.4]nonan-6-one hydrochloride]",1260 µM,158 µM

# The next lines start with the values.
IC50 [1],IC50 [2],Compound
20 µM,100 µM,"CCOc1ccc(F)c(-c2cc([C@@H]3CC[C@]4(CCN(C)C4=O)N3)ncc2CC)c1 [Example 242, (2S,5R)-2-[4-(5-Ethoxy-2-fluoro-phenyl)-5-ethyl-2-pyridyl]-7-methyl-1,7-diazaspiro[4.4]nonan-6-one hydrochloride]"
1 µM,15.8 µM,"CCOc1ccc(F)c(-c2ccnc([C@H]3CC[C@@]4(CC[C@H](C)NC4=O)N3)c2)c1 [Example 246, hydrochloride]"
1.26 µM,20 µM,"CCOc1ccc(F)c(-c2cc(OC)nc([C@H]3CC[C@@]4(CCN(C)C4=O)N3)c2)c1 [Example 250, (2R,5S)-2-[4-(5-Ethoxy-2-fluoro-phenyl)-6-methoxy-2-pyridyl]-7-methyl-1,7-diazaspiro[4.4]nonan-6-one hydrochloride]"
12.6 µM,79.4 µM,"CN1CC[C@@]2(CC[C@H](c3cc(-c4cc(OCC(F)F)ccc4F)ccn3)N2)C1=O [Example 252, (2R,5S)-2-[4-[5-(2,2-Difluoroethoxy)-2-fluoro-phenyl]-2-pyridyl]-7-methyl-1,7-diazaspiro[4.4]nonan-6-one hydrochloride]"
31.6 µM,39800 µM,"CCn1ncc2cc(F)c(-c3ccnc([C@H]4CC[C@@]5(CCN(C)C5=O)N4)c3)cc21 [Example 258, (2R,5S)-2-[4-(1-Ethyl-5-fluoro-indazol-6-yl)-2-pyridyl]-7-methyl-1,7-diazaspiro[4.4]nonan-6-one hydrochloride]"
